Reference: EPA's ToxRefDB 2

How the values were obtained:
rat [1] = details: Prenatal developmental toxicity study, sprague dawley, Oral, Gavage/Intubation, dose end: 15 GD
rabbit = details: Prenatal developmental toxicity study, new zealand white, Oral, Gavage/Intubation, dose end: 19 GD, group: maternal
rat [2] = details: Subchronic oral toxicity in rodents, sprague dawley, Gavage/Intubation, dose end: 90 day
mouse = details: Carcinogenicity; cd1; Oral; Feed; dose end: 18 month; group: systemic; systemic / in life observation / body weight / body weight + systemic / in life observation / body weight / body weight gain
rat [3] = details: Combined chronic toxicity/carcinogenicity, sprague dawley, Oral, Gavage/Intubation, dose end: 104 week
rat [4] = details: Multigenerational reproductive toxicity study, sprague dawley, Oral, Gavage/Intubation, dose end: 2 generation
[5] = group: developmental, developmental / developmental malformation / ureter / distended
[6] = group: maternal, systemic / in life observation / clinical signs / general pallor + systemic / in life observation / clinical signs / pale and/or opaque eyes…
[7] = reproductive / offspring survival early / offspring survival early other / NOS
[8] = group: cholinesterase, cholinesterase / cholinesterase / cholinesterase / plasma cholinesterase (che)
[9] = group: cholinesterase, cholinesterase / cholinesterase / cholinesterase / plasma cholinesterase (che) + cholinesterase / cholinesterase / cholinesterase / brain …
[10] = group: systemic, systemic / in life observation / clinical signs / pupillary function (dilation or constriction)
[11] = group: systemic, systemic / in life observation / clinical signs / pupillary function (dilation or constriction) + systemic / in life observation / body …
[12] = group: cholinesterase, cholinesterase / cholinesterase / cholinesterase / brain cholinesterase (che) + cholinesterase / cholinesterase / cholinesterase / plasma …
[13] = group: cholinesterase, cholinesterase / cholinesterase / cholinesterase / erythrocyte cholinesterase (che)
[14] = group: systemic, systemic / pathology microscopic / liver / adenoma/carcinoma combined
[15] = group: offspring, developmental / offspring survival late / lactation index / lactation index + developmental / offspring survival late / viability index / …
[16] = group: offspring, systemic / in life observation / body weight / offspring (pup) weight
[17] = group: reproductive, reproductive / reproductive performance / estrous cycle / corpora lutea
[18] = group: reproductive, reproductive / reproductive performance / estrous cycle / corpora lutea + reproductive / reproductive performance / fertility / fertility + …

**Q.** How did the LEL (rat [1]; [5]) turn out when `O=C1c2ccccc2C(=O)C1C(=O)C(c1ccccc1)c1ccc(Cl)cc1` (stereo not drawn) [Chlorophacinone] was run?
**A.** 0.0125 mg/kg/day

**Q.** And the LOAEL (rat [1]; [5])?
**A.** 0.0125 mg/kg/day

**Q.** And the NEL (rat [1]; [5])?
**A.** < 0.0125 mg/kg/day

**Q.** And the NOAEL (rat [1]; [5])?
**A.** < 0.0125 mg/kg/day

**Q.** What about the LEL (rat [1]; [6]) of the same compound?
**A.** 0.1 mg/kg/day

**Q.** What about the LOAEL (rat [1]; [6]) of the same compound?
**A.** 0.1 mg/kg/day

**Q.** And the NEL (rat [1]; [6])?
**A.** 0.05 mg/kg/day

**Q.** And the NOAEL (rat [1]; [6])?
**A.** 0.05 mg/kg/day

**Q.** And the LOAEL (rabbit; [7])?
**A.** 0.025 mg/kg/day

**Q.** And the NOAEL (rabbit; [7])?
**A.** 0.01 mg/kg/day

**Q.** And the LEL (rabbit; reproductive / offspring survival early / offspring survival early other / NOS + systemic / in life observation / clinical signs / red or …)?
**A.** 0.025 mg/kg/day

**Q.** And the NEL (rabbit; systemic / in life observation / clinical signs / red or crusty deposits around eyes, ears, nose, or mouth + systemic / in life observation…)?
**A.** 0.01 mg/kg/day

**Q.** With `COC(=O)C=C(C)OP(=O)(OC)OC` [Mevinphos] as the compound, how does the LEL (rat [2]; [8]) read?
**A.** 0.056 mg/kg/day

**Q.** What about the LOAEL (rat [2]; [8]) of the same compound?
**A.** 0.056 mg/kg/day

**Q.** What about the NEL (rat [2]; [9]) of the same compound?
**A.** 0.011 mg/kg/day

**Q.** And the NOAEL (rat [2]; [9])?
**A.** 0.011 mg/kg/day

**Q.** And the LEL (rat [2]; [10])?
**A.** 0.056 mg/kg/day

**Q.** What about the LOAEL (rat [2]; [10]) of the same compound?
**A.** 0.056 mg/kg/day

**Q.** What about the NEL (rat [2]; [11]) of the same compound?
**A.** 0.011 mg/kg/day

**Q.** And the NOAEL (rat [2]; [11])?
**A.** 0.011 mg/kg/day

**Q.** What about the LEL (mouse) of the same compound?
**A.** 3.7 mg/kg/day

**Q.** What about the LOAEL (mouse) of the same compound?
**A.** 3.7 mg/kg/day

**Q.** And the NEL (mouse)?
**A.** 1.5 mg/kg/day

**Q.** And the NOAEL (mouse)?
**A.** 1.5 mg/kg/day

**Q.** And the LOAEL (rat [3]; [12])?
**A.** 0.35 mg/kg/day

**Q.** And the NOAEL (rat [3]; [12])?
**A.** 0.025 mg/kg/day

**Q.** And the LEL (rat [3]; [13])?
**A.** 0.025 mg/kg/day

**Q.** And the NEL (rat [3]; [13])?
**A.** < 0.025 mg/kg/day

**Q.** What about the LEL (rat [3]; [14]) of the same compound?
**A.** 0.6 mg/kg/day

**Q.** And the LOAEL (rat [3]; [14])?
**A.** > 0.6 mg/kg/day

**Q.** What about the NEL (rat [3]; [14]) of the same compound?
**A.** 0.35 mg/kg/day

**Q.** And the NOAEL (rat [3]; [14])?
**A.** ≥ 0.6 mg/kg/day

**Q.** And the LEL (rat [4]; [8])?
**A.** 0.05 mg/kg/day

**Q.** What about the LOAEL (rat [4]; [8]) of the same compound?
**A.** 0.05 mg/kg/day

**Q.** And the NEL (rat [4]; [8])?
**A.** < 0.05 mg/kg/day

**Q.** And the NOAEL (rat [4]; [8])?
**A.** < 0.05 mg/kg/day

**Q.** What about the LOAEL (rat [4]; [15]) of the same compound?
**A.** > 0.5 mg/kg/day

**Q.** And the NOAEL (rat [4]; [15])?
**A.** ≥ 0.5 mg/kg/day

**Q.** And the LEL (rat [4]; [16])?
**A.** 0.05 mg/kg/day

**Q.** What about the NEL (rat [4]; [16]) of the same compound?
**A.** < 0.05 mg/kg/day

**Q.** What about the NEL (rat [4]; group: parental, systemic / in life observation / clinical signs / ataxia + systemic / in life observation / clinical signs / oral discharge + systemic / in …) of the same compound?
**A.** 0.1 mg/kg/day

**Q.** What about the NOAEL (rat [4]; group: parental, systemic / organ weight / ovary / relative to body weight + systemic / in life observation / body weight / body weight) of the same compound?
**A.** 0.1 mg/kg/day

**Q.** What about the LOAEL (rat [4]; group: parental, systemic / organ weight / ovary / relative to body weight + systemic / organ weight / testes / absolute) of the same compound?
**A.** 0.5 mg/kg/day

**Q.** And the LEL (rat [4]; group: parental, systemic / organ weight / ovary / relative to body weight + systemic / organ weight / testes / absolute + systemic / in life observation / …)?
**A.** 0.5 mg/kg/day

**Q.** And the NEL (rat [4]; [17])?
**A.** 0.1 mg/kg/day

**Q.** And the NOAEL (rat [4]; [17])?
**A.** 0.1 mg/kg/day

**Q.** And the LEL (rat [4]; [18])?
**A.** 0.5 mg/kg/day

**Q.** And the LOAEL (rat [4]; [18])?
**A.** 0.5 mg/kg/day
